Source: patent US20050137183A1, “Method and pharmaceutical compositions for treating or inhibiting renal dysfunctions, diseases or disorders, particularly in diabetic patients” (Solvay Pharmaceuticals GmbH, priority 2003, published 2005)

Experiments:
Assay type in all cases: in vivo, rat
[1] = system: rats with streptozotocin-induced diabetes; assay: Plasma concentrations of ET-1, bigET-1 and angiotensin-II in streptozotocin-induced diabetic rats; details: 30 mg/kg/day oral, 18 weeks
Method: (§1) All experiments were conducted in accordance with guidelines for the care and use of laboratory animals. Diabetes was induced in rats by a single tail vein injection of streptozotocin (60 mg/kg b.wt.), without insulin treatment, as recently described in Horcher et al., “Renal endothelin system in diabetes: inhibition and endothelin-A antagonism.”, J. Cardiovasc. Pharmacol. 1998; 31: 492-495. Diabetes was confirmed in streptozotocin treated rats by determining serum glucose concentrations. Only those rats were included having plasma glucose concentrations of >15 mmol/l (hyperglycemic rats, diabetic rats). Three groups of rats were investigated with n 7 to 11 per group: • 1) non-diabetic rats control group; • 2) diabetic rats control group, vehicle treated; • 3) treated diabetic rats group: with test compound of formula I ((3S,2′R)-3-{1-[2′-(ethoxycarbonyl)-4′-phenylbutyl]-cyclopentane-1-carbonylamino}-2,3,4,5-tetrahydro-2-oxo-1H-1-benzazepine-1-acetic-acid), 30 mg/kg/day for 18 weeks.
(§2) At baseline, serum glucose and blood pressure were similar in both diabetic groups. Compared to vehicle, the test compound of formula I had no effect on these parameters during the treatment period. After 18 weeks treatment, urinary protein and albumin excretion were measured. Protein excretion in the vehicle-treated group was about 18 mg/24 h; in the group which had received the compound of formula I it was about 4.8 mg/24 h (p=0.03 versus vehicle). Albumin excretion in the vehicle-group was about 0.5 mg/24 h, and in the which had received the compound of formula I it was about 0.1 mg/24 h (p=0.04). […] From the experiments it can be concluded that test compound of formula I decreases protein and albumin excretion in diabetic rats independent of blood pressure. From the results it may be concluded that the compounds of formula I exert a primary effect on end-organ disease.

[2] = system: rats with streptozotocin-induced diabetes; assay: Glomerular filtration rate by endogenous creatinine clearance in streptozotocin-induced diabetic rats; details: 30 mg/kg/day oral, after 18 weeks of treatment
Method: as §1
Glomerular filtration rate was calculated by the endogeneous creatinine clearance. It was observed that administering a compound of formula I as defined above improved the overall glomerular filtration rate.

[3] = system: rats with streptozotocin-induced diabetes; assay: Blood pressure (tail-cuff plethysmography), heart rate, body weight, glucose and side-effects in streptozotocin-induced diabetic rats
Method: as §1
The experiment performed according to the present invention over 18 weeks of treatment provided the following results which are detailed in Table I, and FIGS. 1 and 2. In the context of the present invention, the most important data to be considered are the mean blood pressure (BP; tail-cuff plethysmography), the protein and albumin excretion (mean values, standard deviations) in urine which was collected in metabolic cages over 24 h, and number (n) of animals in each group regarding non-diabetic controls, diabetic vehicle treated controls (=placebo) and test compound treated group.
as §2

[4] = 30 mg/kg/day oral, after 18 weeks of treatment
[5] = 30 mg/kg/day oral, during the treatment period

CCOC(=O)[C@H](CCc1ccccc1)CC1(C(=O)N[C@H]2CCc3ccccc3N(CC(=O)O)C2=O)CCCC1 [test compound of formula I, (3S,2′R)-3-{1-[2′-(ethoxycarbonyl)-4′-phenylbutyl]-cyclopentane-1-carbonylamino}-2,3,4,5-tetrahydro-2-oxo-1H-1-benzazepine-1-acetic-acid]
Plasma concentration of ET-1 compared to vehicle [1]: unchanged
Plasma concentration of angiotensin-II compared to vehicle [1]: unchanged
Plasma concentration of bigET-1 compared to vehicle [1]: unchanged
Glomerular Filtration Rate, final, mean value [2]: 2.014 mL/min
Blood Pressure, mean value ([3]; 30 mg/kg/day oral with food, after 18 weeks of treatment, tail-cuff): 129 mmHg
Side-effects ([3]; 30 mg/kg/day oral, 18 weeks): No side-effects
Body Weight, mean value [3, 4]: 252.7 g
Glucose, final, mean value [3, 4]: 560.33 mg/dL
Heart Rate, mean value [3, 4]: 280 beats/min
Effect on blood pressure compared to vehicle [3, 5]: no effect
Effect on serum glucose compared to vehicle [3, 5]: no effect
